Results reported in PubChem BioAssay (NCI).
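These data come from cells grown in 96-well plates and exposed to compound for 48 hours at five concentrations. GI50: concentration for 50% inhibition of growth. TGI marks complete inhibition of growth.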

How the values were obtained:
Assay in all cases: NCI anticancer screen, dose series, 48 h
TK-10 renal = system: TK-10 renal
SN12C renal = system: SN12C renal
MDA-MB-231 breast = system: MDA-MB-231 breast
EKVX NSCLC = system: EKVX NSCLC
OVCAR-3 ovarian = system: OVCAR-3 ovarian
HS 578T breast = system: HS 578T breast
PC-3 prostate = system: PC-3 prostate
NCI-H522 lung = system: NCI-H522 lung
HOP-92 NSCLC = system: HOP-92 NSCLC
SK-MEL-2 melanoma = system: SK-MEL-2 melanoma
HT29 colon = system: HT29 colon
OVCAR-4 ovarian = system: OVCAR-4 ovarian
HCT-116 colon = system: HCT-116 colon
UACC-62 melanoma = system: UACC-62 melanoma
MOLT-4 leukemia = system: MOLT-4 leukemia
SW-620 colon = system: SW-620 colon
A498 renal = system: A498 renal
BT-549 breast = system: BT-549 breast
HCC-2998 colon = system: HCC-2998 colon
IGROV1 ovarian = system: IGROV1 ovarian
CAKI-1 renal = system: CAKI-1 renal
SK-MEL-28 melanoma = system: SK-MEL-28 melanoma
M14 melanoma = system: M14 melanoma
MDA-MB-435 = system: MDA-MB-435
UO-31 renal = system: UO-31 renal
LOX IMVI melanoma = system: LOX IMVI melanoma
NCI-H460 lung = system: NCI-H460 lung
SNB-19 CNS = system: SNB-19 CNS
NCI-H23 lung = system: NCI-H23 lung
786-0 renal = system: 786-0 renal
T-47D breast = system: T-47D breast
U251 CNS = system: U251 CNS
HCT-15 colon = system: HCT-15 colon
SK-MEL-5 melanoma = system: SK-MEL-5 melanoma
SR leukemia = system: SR leukemia
SNB-75 CNS = system: SNB-75 CNS
K-562 leukemia = system: K-562 leukemia
RXF 393 renal = system: RXF 393 renal
HL-60(TB) leukemia = system: HL-60(TB) leukemia
OVCAR-5 ovarian = system: OVCAR-5 ovarian
ACHN renal = system: ACHN renal
NCI-H226 lung = system: NCI-H226 lung
RPMI-8226 leukemia = system: RPMI-8226 leukemia
DU-145 prostate = system: DU-145 prostate
NCI/ADR-RES ovarian = system: NCI/ADR-RES ovarian
SF-539 CNS = system: SF-539 CNS
SF-295 CNS = system: SF-295 CNS
SK-OV-3 ovarian = system: SK-OV-3 ovarian
OVCAR-8 ovarian = system: OVCAR-8 ovarian
COLO 205 colon = system: COLO 205 colon
A549 NSCLC = system: A549 NSCLC
HOP-62 NSCLC = system: HOP-62 NSCLC
UACC-257 melanoma = system: UACC-257 melanoma
SF-268 CNS = system: SF-268 CNS
KM12 colon = system: KM12 colon
MCF7 breast = system: MCF7 breast
MALME-3M melanoma = system: MALME-3M melanoma
CCRF-CEM leukemia = system: CCRF-CEM leukemia

For `O=S(=O)(CCNCc1ccc(-c2ccc3ncnc(Nc4ccc(OCc5cccc(F)c5)c(Cl)c4)c3c2)o1)c1ccccc1`, the GI50 (TK-10 renal) was greater than 13.2 µM, the TGI (TK-10 renal) was greater than 25 µM and the GI50 (SN12C renal) was greater than 25 µM. It also gave a TGI (SN12C renal) greater than 25 µM, a GI50 (MDA-MB-231 breast) greater than 25 µM and a TGI (MDA-MB-231 breast) greater than 25 µM. For the same compound, the GI50 (EKVX NSCLC) was 3.44 µM, the TGI (EKVX NSCLC) was greater than 25 µM and the GI50 (OVCAR-3 ovarian) was greater than 25 µM. For the same compound, the TGI (OVCAR-3 ovarian) was greater than 25 µM, the GI50 (HS 578T breast) was greater than 25 µM and the TGI (HS 578T breast) was greater than 25 µM. It also gave a GI50 (PC-3 prostate) greater than 25 µM, a TGI (PC-3 prostate) greater than 25 µM and a GI50 (NCI-H522 lung) greater than 19.5 µM. It also gave a TGI (NCI-H522 lung) greater than 25 µM, a GI50 (HOP-92 NSCLC) of 14.9 µM and a TGI (HOP-92 NSCLC) greater than 25 µM. The GI50 (SK-MEL-2 melanoma) was greater than 25 µM, the TGI (SK-MEL-2 melanoma) was greater than 25 µM and the GI50 (HT29 colon) was greater than 25 µM. For the same compound, the TGI (HT29 colon) was greater than 25 µM, the GI50 (OVCAR-4 ovarian) was greater than 25 µM and the TGI (OVCAR-4 ovarian) was greater than 25 µM. For the same compound, the GI50 (HCT-116 colon) was greater than 25 µM, the TGI (HCT-116 colon) was greater than 25 µM and the GI50 (UACC-62 melanoma) was greater than 25 µM. For the same compound, the TGI (UACC-62 melanoma) was greater than 25 µM, the GI50 (MOLT-4 leukemia) was greater than 25 µM and the TGI (MOLT-4 leukemia) was greater than 25 µM. The GI50 (SW-620 colon) was greater than 25 µM, the TGI (SW-620 colon) was greater than 25 µM and the GI50 (A498 renal) was greater than 14.6 µM. For the same compound, the TGI (A498 renal) was greater than 25 µM, the GI50 (BT-549 breast) was greater than 25 µM and the TGI (BT-549 breast) was greater than 25 µM. It also gave a GI50 (HCC-2998 colon) greater than 25 µM, a TGI (HCC-2998 colon) greater than 25 µM and a GI50 (IGROV1 ovarian) greater than 23.6 µM. It also gave a TGI (IGROV1 ovarian) greater than 25 µM, a GI50 (CAKI-1 renal) of 6.05 µM and a TGI (CAKI-1 renal) greater than 25 µM. The GI50 (SK-MEL-28 melanoma) was greater than 25 µM, the TGI (SK-MEL-28 melanoma) was greater than 25 µM and the GI50 (M14 melanoma) was greater than 25 µM. For the same compound, the TGI (M14 melanoma) was greater than 25 µM, the GI50 (MDA-MB-435) was greater than 25 µM and the TGI (MDA-MB-435) was greater than 25 µM. It also gave a GI50 (UO-31 renal) of 9.06 µM, a TGI (UO-31 renal) greater than 25 µM and a GI50 (LOX IMVI melanoma) greater than 25 µM. For the same compound, the TGI (LOX IMVI melanoma) was greater than 25 µM, the GI50 (NCI-H460 lung) was greater than 25 µM and the TGI (NCI-H460 lung) was greater than 25 µM. The GI50 (SNB-19 CNS) was greater than 25 µM, the TGI (SNB-19 CNS) was greater than 25 µM and the GI50 (NCI-H23 lung) was greater than 25 µM. For the same compound, the TGI (NCI-H23 lung) was greater than 25 µM, the GI50 (786-0 renal) was greater than 25 µM and the TGI (786-0 renal) was greater than 25 µM. It also gave a GI50 (T-47D breast) of 2.21 µM, a TGI (T-47D breast) greater than 25 µM and a GI50 (U251 CNS) greater than 25 µM. It also gave a TGI (U251 CNS) greater than 25 µM, a GI50 (HCT-15 colon) greater than 25 µM and a TGI (HCT-15 colon) greater than 25 µM. For the same compound, the GI50 (SK-MEL-5 melanoma) was greater than 20.5 µM, the TGI (SK-MEL-5 melanoma) was greater than 25 µM and the GI50 (SR leukemia) was greater than 25 µM. For the same compound, the TGI (SR leukemia) was greater than 25 µM, the GI50 (SNB-75 CNS) was greater than 25 µM and the TGI (SNB-75 CNS) was greater than 25 µM. It also gave a GI50 (K-562 leukemia) greater than 25 µM, a TGI (K-562 leukemia) greater than 25 µM and a GI50 (RXF 393 renal) greater than 25 µM. It also gave a TGI (RXF 393 renal) greater than 25 µM, a GI50 (HL-60(TB) leukemia) greater than 25 µM and a TGI (HL-60(TB) leukemia) greater than 25 µM. For the same compound, the GI50 (OVCAR-5 ovarian) was greater than 25 µM, the TGI (OVCAR-5 ovarian) was greater than 25 µM and the GI50 (ACHN renal) was 18.9 µM. It also gave a TGI (ACHN renal) greater than 25 µM, a GI50 (NCI-H226 lung) greater than 25 µM and a TGI (NCI-H226 lung) greater than 25 µM. For the same compound, the GI50 (RPMI-8226 leukemia) was greater than 25 µM, the TGI (RPMI-8226 leukemia) was greater than 25 µM and the GI50 (DU-145 prostate) was greater than 25 µM. It also gave a TGI (DU-145 prostate) greater than 25 µM, a GI50 (NCI/ADR-RES ovarian) greater than 25 µM and a TGI (NCI/ADR-RES ovarian) greater than 25 µM. It also gave a GI50 (SF-539 CNS) greater than 25 µM, a TGI (SF-539 CNS) greater than 25 µM and a GI50 (SF-295 CNS) greater than 25 µM. For the same compound, the TGI (SF-295 CNS) was greater than 25 µM, the GI50 (SK-OV-3 ovarian) was 0.349 µM and the TGI (SK-OV-3 ovarian) was greater than 25 µM. For the same compound, the GI50 (OVCAR-8 ovarian) was greater than 25 µM, the TGI (OVCAR-8 ovarian) was greater than 25 µM and the GI50 (COLO 205 colon) was greater than 25 µM. It also gave a TGI (COLO 205 colon) greater than 25 µM, a GI50 (A549 NSCLC) greater than 25 µM and a TGI (A549 NSCLC) greater than 25 µM. It also gave a GI50 (HOP-62 NSCLC) greater than 25 µM, a TGI (HOP-62 NSCLC) greater than 25 µM and a GI50 (UACC-257 melanoma) greater than 25 µM. It also gave a TGI (UACC-257 melanoma) greater than 25 µM, a GI50 (SF-268 CNS) greater than 25 µM and a TGI (SF-268 CNS) greater than 25 µM. The GI50 (KM12 colon) was greater than 25 µM, the TGI (KM12 colon) was greater than 25 µM and the GI50 (MCF7 breast) was greater than 25 µM. The TGI (MCF7 breast) was greater than 25 µM, the GI50 (MALME-3M melanoma) was greater than 25 µM and the TGI (MALME-3M melanoma) was greater than 25 µM. It also gave a GI50 (CCRF-CEM leukemia) greater than 23.1 µM and a TGI (CCRF-CEM leukemia) greater than 25 µM.
